Data reported in patent US8575186B2, “Epiminocycloalkyl[b] indole derivatives as serotonin sub-type 6 (5-HT6) modulators and uses thereof” (Albany Molecular Research, Inc., priority 2009, dated 2013).
Structures can show the parent of a compound that is named as a salt.

molecular target: human 5-HT6 receptor (Homo sapiens (Human), UniProt P50406); assay: radioligand binding assay (SPA format), [N-methyl-3H]-LSD; conditions: read-out: human 5HT6 Ki; human 5-HT6 receptor membranes, 10 nM [3H]-LSD
Sequence (P50406 whole entry): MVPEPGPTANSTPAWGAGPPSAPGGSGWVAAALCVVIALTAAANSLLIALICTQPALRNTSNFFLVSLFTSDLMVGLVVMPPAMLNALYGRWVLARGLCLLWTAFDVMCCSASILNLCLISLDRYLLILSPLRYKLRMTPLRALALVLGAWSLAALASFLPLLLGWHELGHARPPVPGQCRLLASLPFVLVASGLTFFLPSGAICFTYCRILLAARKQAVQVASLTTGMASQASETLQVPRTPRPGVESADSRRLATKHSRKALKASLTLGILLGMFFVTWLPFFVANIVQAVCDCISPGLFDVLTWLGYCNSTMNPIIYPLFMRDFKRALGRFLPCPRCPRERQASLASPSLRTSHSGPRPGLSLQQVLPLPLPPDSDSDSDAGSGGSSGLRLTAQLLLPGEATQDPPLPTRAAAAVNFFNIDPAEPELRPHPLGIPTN

Compound	Ki [nM]
COc1cc(S(=O)(=O)c2cccc(Cl)c2)cc2c3c(n(C)c12)CC1CCC3N1C (centres unmarked) [Example 226]	1
Cn1c2c(c3cc(S(=O)(=O)c4cccc5cccnc45)ccc31)C1CCC(C2)N1 (centres unmarked) [Example 170]	17
Cn1c2c(c3cc(S(=O)(=O)c4ccc(CN)cc4)ccc31)C1CCC(C2)N1 (centres unmarked) [Example 33, 2-(4-Aminomethylphenyl)sulfonyl-5-methyl-5,6,7,8,9,10-hexahydro-7,10-epiminocyclohepta[b]indole dihydrochloride]	15
Cn1c2c(c3cc(S(=O)(=O)c4ccnc5ccccc45)ccc31)C1CCC(C2)N1 (centres unmarked) [Example 132]	39
Cn1c2c(c3cc(S(=O)(=O)c4ccccc4)cc(OCc4ccccn4)c31)C1CCC(C2)N1 (centres unmarked) [Example 154]	80
CCOc1cc(S(=O)(=O)c2ccccc2)cc2c3c(n(C)c12)CC1CCC3N1 (centres unmarked) [Example 235]	0.42
CC(C)N1C2CCC1c1c(n(C)c3ccc(S(=O)(=O)c4ccc5[nH]ccc5c4)cc13)C2 (centres unmarked) [Example 135]	3.2
Cn1c2c(c3cc(S(=O)(=O)n4ccc5cc(Cl)ccc54)ccc31)C1CCC(C2)N1 (centres unmarked) [Example 196]	1.2
Cn1c2c(c3cc(S(=O)(=O)c4cccc(-n5cccn5)c4)ccc31)C1CCC(C2)N1 (centres unmarked) [Example 245]	9
Cn1c2c(c3cc(S(=O)(=O)n4ccc5c(F)cccc54)ccc31)C1CCC(C2)N1 (centres unmarked) [Example 64, 2-[1-(4-Fluoro)-indole]sulfonyl-5-methyl-5,6,7,8,9,10-hexahydro-7,10-epiminocyclohepta[b]indole hydrochloride]	5.6
COc1cc(S(=O)(=O)c2cccc(-n3cccn3)c2)cc2c3c(n(C)c12)CC1CCC3N1 (centres unmarked) [Example 246]	10
CCc1cc(S(=O)(=O)c2ccccc2)cc2c3c(n(C)c12)CC1CCC3N1 (centres unmarked) [Example 80, 2-Phenylsulfonyl-4-ethyl-5-methyl-5,6,7,8,9,10-hexahydro-7,10-epiminocyclohepta[b]indole hydrochloride]	17
COc1cc(S(=O)(=O)n2ccc3ccccc32)cc2c3c(n(C)c12)CC1CCC3N1 (centres unmarked) [Example 240]	0.85
Cn1c2c(c3cc(S(=O)(=O)n4ccc5ccc(C#N)cc54)ccc31)C1CCC(C2)N1 (centres unmarked) [Example 127]	1.5
Cn1c2c(c3cc(S(=O)(=O)c4ccc5c(ccn5CCO)c4)ccc31)C1CCC(C2)N1 (centres unmarked) [Example 119]	228
Cc1cc(S(=O)(=O)c2csc3ccccc23)cc2c3c(n(C)c12)CC1CCC3N1 (centres unmarked) [Example 141]	0.29
Cn1c2c(c3cc(S(=O)(=O)c4ccccc4F)cc(O)c31)C1CCC(C2)N1 (centres unmarked) [Example 210]	1
CN1C2CCC1c1c(n(C)c3ccc(S(=O)(=O)c4ccc5[nH]ccc5c4)cc13)C2 (centres unmarked) [Example 134]	0.26
Cc1cc(S(=O)(=O)c2cn(C)c3ccccc23)cc2c3c(n(C)c12)CC1CCC3N1 (centres unmarked) [Example 140]	0.56
Cn1c2c(c3cc(S(=O)(=O)c4cnc5[nH]ccc5c4)ccc31)C1CCC(C2)N1 (centres unmarked) [Example 101]	2.9
Cn1c2c(c3cc(S(=O)(=O)c4ccccc4)ccc31)C1CCCC(C2)N1 (centres unmarked) [Example 92, 2-(Phenylsulfonyl)-5-methyl-6,7,8,9,10,11-hexahydro-5H-7,11-epiminocycloocta[b]indole hydrochloride]	150
Cn1c2c(c3cc(S(=O)(=O)c4ccc5occc5c4)ccc31)C1CCC(C2)N1 (centres unmarked) [Example 116]	20
Cn1c2c(c3cc(S(=O)(=O)c4cc(C(F)(F)F)c5[nH]ccc5c4)ccc31)C1CCC(C2)N1 (centres unmarked) [Example 123]	0.47
COCCn1ccc2cc(S(=O)(=O)c3ccc4c(c3)c3c(n4C)CC4CCC3N4)ccc21 (centres unmarked) [Example 120]	64

test system: not given; assay: not given; conditions: not given

Compound	melting point
Cl.Cn1c2c(c3cc(S(=O)(=O)c4cccc(NC5CCCC5)c4)ccc31)C1CCC(C2)N1 (centres unmarked) [Example 48, 2-[(3-N-Cyclopentylamino)phenyl]sulfonyl-5-methyl-5,6,7,8,9,10-hexahydro-7,10-epiminocyclohepta[b]indole hydrochloride]	211 to 217 °C
CC(C)Oc1cc(S(=O)(=O)c2ccccc2)cc2c3c(n(C)c12)CC1CCC3N1.Cl (centres unmarked) [Example 85, 2-Phenylsulfonyl-4-isopropoxy-5-methyl-5,6,7,8,9,10-hexahydro-7,10-epiminocyclohepta[b]indole hydrochloride]	187 to 189 °C
Cl.Cn1c2c(c3cc(S(=O)(=O)c4cccc(-c5ccccc5)c4)ccc31)C1CCC(C2)N1 (centres unmarked) [Example 57, 2-[(3-Phenyl)-phenyl]sulfonyl-5-methyl-5,6,7,8,9,10-hexahydro-7,10-epiminocyclohepta[b]indole hydrochloride]	230 to 235 °C (dec.)
Cl.Cn1c2c(c3cc(S(=O)(=O)c4ccccc4)ccc31)C1CCC(C2)N1 (centres unmarked) [Example 27, 2-Phenylsulfonyl-5-methyl-5,6,7,8,9,10-hexahydro-7,10-epiminocyclohepta[b]indole hydrochloride]	238 to 244 °C (dec.)
COc1cc(S(=O)(=O)c2ccccc2)cc2c3c(n(C)c12)CC1CCC3N1.Cl (centres unmarked) [Example 83, 2-Phenylsulfonyl-4-methoxy-5-methyl-5,6,7,8,9,10-hexahydro-7,10-epiminocyclohepta[b]indole hydrochloride]	175 to 177 °C
Cn1c2c(c3cc(S(=O)(=O)c4ccc(CN)cc4)ccc31)C1CCC(C2)N1 (centres unmarked) (as salt: hydrochloride) [Example 33, 2-(4-Aminomethylphenyl)sulfonyl-5-methyl-5,6,7,8,9,10-hexahydro-7,10-epiminocyclohepta[b]indole dihydrochloride]	237 to 239 °C
Cl.Cn1c2c(c3cc(S(=O)(=O)n4ccc5cc(F)ccc54)ccc31)C1CCC(C2)N1 (centres unmarked) [Example 63, 2-[1-(5-Fluoro)-indole]sulfonyl-5-methyl-5,6,7,8,9,10-hexahydro-7,10-epiminocyclohepta[b]indole hydrochloride]	218 to 220 °C
Cc1cccc(S(=O)(=O)c2cc(C)c3c(c2)c2c(n3C)CC3CCC2N3)c1.Cl (centres unmarked) [Example 74, 2-(3-Methyl-phenyl)sulfonyl-4,5-dimethyl-5,6,7,8,9,10-hexahydro-7,10-epiminocyclohepta[b]indole hydrochloride]	228 to 230 °C
Cl.Cn1c2c(c3cc(S(=O)(=O)c4ccc(N)cc4)ccc31)C1CCC(C2)N1 (centres unmarked) [Example 53, 2-(4-Aminophenyl)sulfonyl-5-methyl-5,6,7,8,9,10-hexahydro-7,10-epiminocyclohepta[b]indole hydrochloride]	220 to 225 °C
CN(C)c1cccc(S(=O)(=O)c2ccc3c(c2)c2c(n3C)CC3CCC2N3)c1.Cl (centres unmarked) [Example 45, 2-[(3-N,N-Dimethylamino)phenyl]sulfonyl-5-methyl-5,6,7,8,9,10-hexahydro-7,10-epiminocyclohepta[b]indole hydrochloride]	204 to 208 °C (dec.)
Cc1cc(S(=O)(=O)c2cccc(F)c2)cc2c3c(n(C)c12)CC1CCC3N1.Cl (centres unmarked) [Example 72, 2-(3-Fluorophenyl)sulfonyl-4,5-dimethyl-5,6,7,8,9,10-hexahydro-7,10-epiminocyclohepta[b]indole hydrochloride]	254 to 256 °C
Cl.Cn1c2c(c3cc(S(=O)(=O)c4cccc(OC(F)(F)F)c4)ccc31)C1CCC(C2)N1 (centres unmarked) [Example 39, 2-(3-Trifluoromethoxyphenyl)sulfonyl-5-methyl-5,6,7,8,9,10-hexahydro-7,10-epiminocyclohepta[b]indole hydrochloride]	193 to 196 °C
Cl.Cn1c2c(c3cc(S(=O)(=O)c4ccc(C(F)(F)F)cc4)ccc31)C1CCC(C2)N1 (centres unmarked) [Example 29, 2-(4-Trifluoromethylphenyl)sulfonyl-5-methyl-5,6,7,8,9,10-hexahydro-7,10-epiminocyclohepta[b]indole hydrochloride]	200 to 205 °C
CN(C)Cc1ccc(S(=O)(=O)c2ccc3c(c2)c2c(n3C)CC3CCC2N3)cc1 (centres unmarked) (as salt: hydrochloride) [Example 34, 2-[4-(N,N-Dimethylaminomethyl)phenyl]sulfonyl-5-methyl-5,6,7,8,9,10-hexahydro-7,10-epiminocyclohepta[b]indole dihydrochloride]	244 to 246 °C
Cl.Cn1c2c(c3cc(S(=O)(=O)c4ccsc4)ccc31)C1CCC(C2)N1 (centres unmarked) [Example 56, 2-(3-Thienyl)sulfonyl-5-methyl-5,6,7,8,9,10-hexahydro-7,10-epiminocyclohepta[b]indole hydrochloride]	208 to 212 °C (dec.)
Cc1cc(S(=O)(=O)n2ccc3ccccc32)cc2c3c(n(C)c12)CC1CCC3N1.Cl (centres unmarked) [Example 79, 2-[1-Indolesulfonyl]-4,5-dimethyl-5,6,7,8,9,10-hexahydro-7,10-epiminocyclohepta[b]indole]	225 to 228 °C
COc1ccc2c(ccn2S(=O)(=O)c2ccc3c(c2)c2c(n3C)CC3CCC2N3)c1.Cl (centres unmarked) [Example 66, 2-[1-(5-Methoxy)-indole]sulfonyl-5-methyl-5,6,7,8,9,10-hexahydro-7,10-epiminocyclohepta[b]indole hydrochloride]	206 to 209 °C
Cl.Cn1c2c(c3cc(S(=O)(=O)c4ccc5ccccc5c4)ccc31)C1CCC(C2)N1 (centres unmarked) [Example 50, 2-(2-Napthyl)sulfonyl-5-methyl-5,6,7,8,9,10-hexahydro-7,10-epiminocyclohepta[b]indole hydrochloride]	220 to 222 °C
Cl.Cn1c2c(c3cc(S(=O)(=O)c4cccc(C#N)c4)ccc31)C1CCC(C2)N1 (centres unmarked) [Example 43, 2-(3-Cyanophenyl)sulfonyl-5-methyl-5,6,7,8,9,10-hexahydro-7,10-epiminocyclohepta[b]indole hydrochloride]	211 to 214 °C
Cc1cc(S(=O)(=O)c2cccc(Cl)c2)cc2c3c(n(C)c12)CC1CCC3N1.Cl (centres unmarked) [Example 73, 2-(3-Chloro-phenyl)sulfonyl-4,5-dimethyl-5,6,7,8,9,10-hexahydro-7,10-epiminocyclohepta[b]indole hydrochloride]	227 to 229 °C
